# Results taken from patent US20180110762A1, “Compositions Methods for Treating Chronic Kidney Disease” (Merck Sharp & Dohme Corp, priority 2015, published 2018).
# Marks after values point to notes of the source that are not given here.
# What was measured:
# Format in all cases: in vivo
# [1] = test system: male obese ZSF1 rats (diabetic nephropathy model); test: ZSF1 rat study: plasma triglyceride and cholesterol; settings: obese ZSF1 rats, 10 mpk in-feed; for plasma cholesterol levels: in mg/dL (unit assumed)
# Experimental: (§1) The effects of Compound A (“A”) on renal function, plasma triglycerides, plasma cholesterol, kidney collagen I, kidney collagen III, renal histology, glomerular filtration rate, fibrosis score, and mRNA gene expression (profibrotic genes and integrin β3) were evaluated in male obese ZSF1 rats (a hybrid F1 of Zucker diabetic fatty rat and spontaneously hypertensive heart failure rat; a diabetic nephropathy model) when administered as in-feed for 28 weeks. Sixty obese male ZSF1 rats were randomized to five groups: Obese control (n=12), Compound A 60 mpk (n=12), Compound A 200 mpk (n=12), Compound A 400 mpk (n=12), Enalapril 10 mpk (n=12); Eight lean male ZSF1 rats were used for normal control. Renal functional changes were monitored by blood and urine analysis following in-feed dosing for 28 weeks. Compound exposure was also monitored during the study.
# [2] = ZSF1 rat 28-week in-feed study: body weight, food and water intake; settings: obese ZSF1 rats, 10 mpk in-feed
# Experimental: as §1
# [3] = test system: male obese ZSF1 rats (diabetic nephropathy model); test: ZSF1 rat study: kidney collagen I and III immunostaining; settings: obese ZSF1 rats, 10 mpk in-feed, week 28
# Experimental: as §1
# Following deparaffinization and rehydration, each kidney tissue section was processed to identify collagen I and III deposition. The primary antibodies used were rabbit anti-type I collagen polyclonal antibody (Abcam, Cambridge, Mass.) diluted at 2 ug/ml, and rabbit anti-type III collagen polyclonal antibody (Lifespan, Seattle, Wash.) at 3 ug/ml. The signal was developed by using Super PicTure HRP Polymer Rabbit Primary kit (Invitrogen) and the slides were counterstained with hematoxylin. The Aperio ScanScope XT Slide Scanner (Aperio Technologies, Vista, Calif.) system was used to capture whole slide digital images with a 20× objective. Digital images were managed using Aperio Spectrum. The positive stains were identified and quantified using a macro created from a color deconvolution algorithm (Aperio Technologies, Vista, Calif.).
# [4] = test system: male obese ZSF1 rats (diabetic nephropathy model); test: ZSF1 rat study: kidney mRNA expression of profibrotic genes and integrin beta3; settings: obese ZSF1 rats, 10 mpk in-feed, week 28
# Experimental: as §1
# [5] = test system: male obese ZSF1 rats (diabetic nephropathy model); test: ZSF1 rat study: GFR measurement by FITC-sinistrin clearance; settings: obese ZSF1 rats, 10 mpk in-feed, week 28
# Experimental: as §1
# For the measurement of GFR, a miniaturized device (NIC-Kidney, Mannheim Pharma & Diagnostics, Mannheim, Germany) was used. In brief, the device (batteries, diodes, and microprocessor) containing an optical component was affixed on a depilated region of the back using a double-sided sticky patch (Lohmann GmbH KG, 56567, Neuwied, Germany) under isofluorane anesthesia (3% isoflurane mixed with oxygen). After a resting baseline period of 1-1.5 minutes, a bolus of FITC-sinistrin (5 mg/100 g body weight, dissolved in 0.5 mL sterile isotonic saline) was injected through the tail vein. The rat was then placed in a clean cage for recovery from anesthesia to responsible ambulation. […] The excretion kinetics of FITC-sinistrin was determined using a sampling rate of 60 measurements per minute with an excitation time of 10 milliseconds per measurement for 120 minutes after the injection. One compartment model was used for FITC-sinistrin clearance. After completion of GFR measurement, the device was gently removed from the skin and the rat returned to its home cage.
# [6] = test system: male obese ZSF1 rats (diabetic nephropathy model); test: ZSF1 rat 28-week in-feed study: urinary protein (UPCR, 24 h excretion); settings: obese ZSF1 rats, 10 mpk in-feed
# Experimental: as §1
# [7] = test system: male obese ZSF1 rats (diabetic nephropathy model); test: ZSF1 rat study: renal fibrosis score (histology); settings: obese ZSF1 rats, 10 mpk in-feed, week 28
# Experimental: as §1
# Upon completion of the study, animals were euthanized and blood and organs (kidney, heart, aorta, eyes, and lumber vertebrae (LV1-LV5) and left femur) were collected for histology assessment (including EM for the kidneys) or DEXA scan (lumber vertebrae and left femur). Kidney tissues were fixed in 10% formalin and then paraffin embedded. Tissue sections were stained with hematoxylin and eosin (H&E), periodic acid-Schiff (PAS), and Masson's trichrome and evaluated under light microscope. The severity of histopathologic changes in renal tubules, interstitium, vasculature, and glomeruli were graded on a 1 to 5 scale corresponding to minimal, mild, moderate, marked, and severe as described previously. Sections from both kidneys were examined. Collagen deposition in the kidney was graded on a 1 to 5 scale corresponding to minimal, mild, moderate, marked, and severe, based on the blue stained area size and intensity.
smiles,measurement,setting,value
"CCOC(=O)[C@H](CCc1ccccc1)N[C@@H](C)C(=O)N1CCC[C@H]1C(=O)O [Enalapril, reference compound]",Plasma Triglyceride,[1]; week 2,2979.8 ± 161.7 mg/dL
same,plasma cholesterol levels,[1]; week 2,220.9 ± 5.9
same,Plasma Triglyceride,[1]; week 4,3212.4 ± 137.6 mg/dL
same,plasma cholesterol levels,[1]; week 4,251.1 ± 7.4
same,Plasma Triglyceride,[1]; week 6,2866.6 ± 145.5 mg/dL
same,plasma cholesterol levels,[1]; week 6,232.5 ± 6.0
same,Plasma Triglyceride,[1]; week 8,3770.3 ± 280.6 mg/dL
same,plasma cholesterol levels,[1]; week 8,294.3 ± 6.7
same,Plasma Triglyceride,[1]; week 12,3298.3 ± 221.4 mg/dL
same,plasma cholesterol levels,[1]; week 12,290.2 ± 7.6
same,Plasma Triglyceride,[1]; week 16,3554.6 ± 186.3 mg/dL
same,plasma cholesterol levels,[1]; week 16,319.3 ± 9.9
same,Plasma Triglyceride,[1]; week 21,3224.3 ± 240.5 mg/dL
same,plasma cholesterol levels,[1]; week 21,321.1 ± 11.3
same,Plasma Triglyceride,[1]; week 24,3180.2 ± 204.5 mg/dL
same,plasma cholesterol levels,[1]; week 24,354.3 ± 12.5
same,Plasma Triglyceride,[1]; week 28,2855.1 ± 291.3 mg/dL
same,plasma cholesterol levels,[1]; week 28,368.8 ± 13.2
same,Plasma Triglyceride,[1]; week −2,2023.9 ± 82.1 mg/dL
same,plasma cholesterol levels,[1]; week −2,187.1 ± 5.4
same,Body Weight,[2]; week 1,570.2 ± 10.3 grams
same,Food Intake,[2]; week 1,30.1 ± 1.3 grams/24 h
same,Water Intake,[2]; week 1,50.2 ± 6.2 mls/24 h
same,Body Weight,[2]; week 2,578.3 ± 11.2 grams
same,Food Intake,[2]; week 2,31.7 ± 1.4 grams/24 h
same,Water Intake,[2]; week 2,55.0 ± 5.2 mls/24 h
same,Body Weight,[2]; week 4,585.7 ± 11.1 grams
same,Food Intake,[2]; week 4,33.1 ± 1.0 grams/24 h
same,Water Intake,[2]; week 4,56.6 ± 6.0 mls/24 h
same,Body Weight,[2]; week 6,606.1 ± 11.6 grams
same,Food Intake,[2]; week 6,33.1 ± 1.0 grams/24 h
same,Water Intake,[2]; week 6,61.7 ± 5.5 mls/24 h
same,Body Weight,[2]; week 8,623.8 ± 13.3 grams
same,Food Intake,[2]; week 8,35.1 ± 1.5 grams/24 h
same,Water Intake,[2]; week 8,85.4 ± 7.4 mls/24 h
same,Body Weight,[2]; week 10,637.2 ± 14.1 grams
same,Body Weight,[2]; week 12,655.6 ± 14.2 grams
same,Food Intake,[2]; week 12,36.6 ± 1.5 grams/24 h
same,Water Intake,[2]; week 12,91.7 ± 7.5 mls/24 h
same,Body Weight,[2]; week 14,658.1 ± 16.2 grams
same,Body Weight,[2]; week 16,671.1 ± 16.8 grams
same,Food Intake,[2]; week 16,33.3 ± 1.6 grams/24 h
same,Water Intake,[2]; week 16,83.3 ± 8.3 mls/24 h
same,Body Weight,[2]; week 18,682.1 ± 16.4 grams
same,Body Weight,[2]; week 21,709.5 ± 18.0 grams
same,Food Intake,[2]; week 21,37.7 ± 1.6 grams/24 h
same,Water Intake,[2]; week 21,75.8 ± 5.9 mls/24 h
same,Body Weight,[2]; week 24,733.7 ± 20.2 grams
same,Food Intake,[2]; week 24,35.5 ± 1.3 grams/24 h
same,Water Intake,[2]; week 24,89.7 ± 7.9 mls/24 h
same,Body Weight,[2]; week 28,753.7 ± 21.8 grams
same,Food Intake,[2]; week 28,33.6 ± 1.5 grams/24 h
same,Water Intake,[2]; week 28,68.0 ± 6.5 mls/24 h
same,Body Weight,[2]; week −2,522.2 ± 10.2 grams
same,Food Intake,[2]; week −2,37.5 ± 1.5 grams/24 h
same,Water Intake,[2]; week −2,68.1 ± 4.9 mls/24 h
same,kidney collagen I protein levels,[3],34.83 ± 0.71 % of area
same,kidney collagen III protein levels,[3],19.19 ± 0.90 % of area
same,Collagen I (a1) expression in the kidney,[4],0.54 ± 0.02
same,Collagen III (a1) expression in the kidney,[4],0.39 ± 0.02
same,Integrin beta3 expression in the kidney,[4],0.68 ± 0.03
same,PAI-1 expression in the kidney,[4],0.52 ± 0.04
same,"FITC-sinistrin clearance, % change of improvement compared to Obese Vehicle group",[5],59.6%****
same,Glomerular Filtration Rate,[5],971.9 ± 53.3 uLs/Min/100 gm BW
same,24 h Urinary Protein Excretion,[6]; week 1,73.9 ± 3.8 mg/24 h
same,UPCR (urinary protein/creatinine ratio),[6]; week 1,6.3 ± 0.3 mg/mg
same,24 h Urinary Protein Excretion,[6]; week 2,91.2 ± 4.9 mg/24 h
same,UPCR (urinary protein/creatinine ratio),[6]; week 2,7.4 ± 0.4 mg/mg
same,24 h Urinary Protein Excretion,[6]; week 4,96.1 ± 5.1 mg/24 h
same,UPCR (urinary protein/creatinine ratio),[6]; week 4,8.0 ± 0.4 mg/mg
same,24 h Urinary Protein Excretion,[6]; week 6,92.2 ± 6.0 mg/24 h
same,UPCR (urinary protein/creatinine ratio),[6]; week 6,7.3 ± 0.4 mg/mg
same,24 h Urinary Protein Excretion,[6]; week 8,135.3 ± 10.2 mg/24 h
same,UPCR (urinary protein/creatinine ratio),[6]; week 8,10.2 ± 0.6 mg/mg
same,24 h Urinary Protein Excretion,[6]; week 12,234.8 ± 16.4 mg/24 h
same,UPCR (urinary protein/creatinine ratio),[6]; week 12,17.1 ± 0.9 mg/mg
same,24 h Urinary Protein Excretion,[6]; week 16,252.2 ± 21.1 mg/24 h
same,UPCR (urinary protein/creatinine ratio),[6]; week 16,14.0 ± 0.7 mg/mg
same,24 h Urinary Protein Excretion,[6]; week 21,274.5 ± 16.8 mg/24 h
same,UPCR (urinary protein/creatinine ratio),[6]; week 21,15.6 ± 0.6 mg/mg
same,24 h Urinary Protein Excretion,[6]; week 24,289.4 ± 16.5 mg/24 h
same,UPCR (urinary protein/creatinine ratio),[6]; week 24,16.6 ± 0.8 mg/mg
same,24 h Urinary Protein Excretion,[6]; week 28,309.6 ± 15.8 mg/24 h
same,UPCR (urinary protein/creatinine ratio),[6]; week 28,19.5 ± 0.8 mg/mg
same,24 h Urinary Protein Excretion,[6]; week −2,132.9 ± 9.9 mg/24 h
same,UPCR (urinary protein/creatinine ratio),[6]; week −2,10.8 ± 0.8 mg/mg
same,renal fibrosis score (expressed as 0-5),[7],2.0 ± 0.1
